Drawing on patent publication US20240174690A1, “ANNULATED 2-AMINO-3-CYANO THIOPHENES AND DERIVATIVES FOR THE TREATMENT OF CANCER” (BOEHRINGER INGELHEIM INTERNATIONAL GMBH, priority 2021, published 2024), this text covers IC50 for 27 molecules.

Test [1] deals with KRAS (G12D)::SOS1 (Homo sapiens (Human), UniProt P01116, G12D). Kind of test: KRAS::SOS1 AlphaScreen binding assay, KRAS G12D. A digest of the protocol:
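AlphaScreen measurement of compound disruption of biotinylated, GDP-loaded KRAS 1-169 (10 nM; G12C 7.5 nM) binding to GST-SOS1 564-1049 (5 nM with G12D/G12C, 10 nM otherwise), with 10 μM GDP in PBS/0.1% BSA/0.05% Tween 20. Timing was 30 min compound preincubation, then 60 min with beads at room temperature; top concentration 100 μM, 4-parameter IC50.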

Test [2] concerns KRAS G12D-dependent Ba/F3 cells. The test is described as follows: Ba/F3 proliferation assay, KRAS G12D. Type of test: cell-based. To be noted: Mus musculus, BaF3, 72 h, AlamarBlue. An outline of the steps:
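Transforming KRAS G12 mutants replaced IL-3 dependence in retrovirally engineered Ba/F3 cells, with puromycin omitted about ten days before testing. Growth under compound was quantified with an AlamarBlue fluorescent viability stain, in duplicate, by curve fitting.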

The subject of test [3] is SAS cells. Kind of test: SAS CTG proliferation assay (120 h) (HNSCC, wt amplified). Type of test: cell-based. A digest of the protocol:
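SAS cells plated at 300 per well in DMEM:F12 with 10% FCS and left overnight, then given compounds acoustically. After 120 h exposure, viability read by CellTiter-Glo as percent of DMSO control. IC50 from four-parameter non-linear regression.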

The term IC50 denotes the concentration needed to halve the response being measured. Lower therefore signals inhibition by little substance.

KRAS (G12D)::SOS1, sequence (P01116 other isoform, or with tags, fused parts or gaps G12D): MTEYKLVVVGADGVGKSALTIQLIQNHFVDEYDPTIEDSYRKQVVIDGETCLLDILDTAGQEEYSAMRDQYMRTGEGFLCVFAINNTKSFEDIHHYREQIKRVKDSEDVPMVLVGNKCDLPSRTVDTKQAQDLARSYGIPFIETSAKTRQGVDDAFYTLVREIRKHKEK

For `CO[C@@H]1C[C@@H]([C@H](C)Oc2cc(N3CCN(C)C4(CC4)C3)nc(-c3noc4c3CCC[C@@]43CCCc4sc(N)c(C#N)c43)n2)N(C)C1` [II-152], the 50% inhibitory concentration (IC50) stood at 3 nM in test [1], 68 nM in test [2] and 4230 nM in test [3].

As to `CO[C@@H]1C[C@@H]([C@H](C)Oc2cc(N3CCN(C)C4(COC4)C3)nc(-c3noc4c3CCC[C@@]43CCCc4sc(N)c(C#N)c43)n2)N(C)C1` [II-153], the IC50 was determined as 2 nM in test [1], 126 nM in test [2] and 199 nM in test [3].

For `C[C@H](Oc1cc(-n2cc3c(n2)CNC3)nc(-c2noc3c2CCC[C@@]32CCCc3sc(N)c(C#N)c32)n1)[C@@H]1C[C@@H](F)CN1C` [II-154], the IC50 was found to be 1 nM in test [1], 82 nM in test [2] and 747 nM in test [3].

As for `C[C@H](Oc1nc(-c2noc3c2CCC[C@@]32CCCc3sc(N)c(C#N)c32)nc(N2CCNC3(CC3)C2)c1F)[C@@H]1C[C@@H](F)CN1C` [II-155], the IC50 in test [1] stood at 1 nM; in test [2] it was 6 nM; in test [3] it was 471 nM.

As for `C[C@H](Oc1nc(-c2noc3c2CCC[C@@]32CCCc3sc(N)c(C#N)c32)nc(N2CCNC3(CC3)C2)c1Cl)[C@@H]1C[C@@H](F)CN1C` [II-156], the IC50 came out at 1 nM in test [1], 16 nM in test [2] and 440 nM in test [3].

As to `C[C@H](Oc1nc(-c2noc3c2CCC[C@@]32CCCc3sc(N)c(C#N)c32)nc(N2C[C@H](C)NC3(CC3)C2)c1F)[C@@H]1C[C@@H](F)CN1C` [II-157], the results for the IC50 in test [1], in test [2] and in test [3] were 1 nM, 17 nM and 1190 nM, respectively.

On to `C[C@@H]1CN(c2nc(-c3noc4c3CCC[C@@]43CCCc4sc(N)c(C#N)c43)nc(O[C@@H](C)[C@@H]3C[C@@H](F)CN3C)c2F)CC2(CC2)N1` [II-158], for which the IC50 in test [1] was determined as 2 nM; in test [2], 24 nM; in test [3] it was 585 nM.

In the case of `COc1c(O[C@@H](C)[C@@H]2CCCN2C)nc(-c2noc3c2CCC[C@@]32CCCc3sc(N)c(C#N)c32)nc1-n1ccc(C(N)=O)n1` [II-159], the half-maximal inhibitory concentration (IC50) in test [1] was 6 nM; in test [2], 366 nM; in test [3], 70 nM.

Take `C[C@H](Oc1cc(N2CC3COCC(C2)N3)nc(-c2noc3c2CCC[C@@]32CCCc3sc(N)c(C#N)c32)n1)[C@@H]1CCCN1C` [II-160]: the results for the IC50 in test [1], in test [2] and in test [3] were 2 nM, 429 nM and 821 nM, respectively.

With `C[C@@H]1CN(c2cc(O[C@@H](C)[C@@H]3CCCN3C)nc(-c3noc4c3CCC[C@@]43CCCc4sc(N)c(C#N)c43)n2)CCN1` [II-161], the concentration for half-maximal inhibition (IC50) in test [1] turned out to be 2 nM; in test [2] it was 250 nM; in test [3], 1580 nM.

For `C[C@H](Oc1cc(N2CCN[C@@H](C)C2)nc(-c2noc3c2CCC[C@@]32CCCc3sc(N)c(C#N)c32)n1)[C@@H]1CCCN1C` [II-162], the concentration for half-maximal inhibition (IC50) amounted to 1 nM in test [1], 41 nM in test [2] and 2120 nM in test [3].

In the case of `C[C@H](Oc1cc([C@H]2CCNC2)nc(-c2noc3c2CCC[C@@]32CCCc3sc(N)c(C#N)c32)n1)[C@@H]1CCCN1C` [II-163], the results for the IC50 in test [1], in test [2] and in test [3] were 1 nM, 97 nM and 274 nM, respectively.

On to `C[C@H](Oc1cc(C2=CCNCC2)nc(-c2noc3c2CCC[C@@]32CCCc3sc(N)c(C#N)c32)n1)[C@@H]1CCCN1C` [II-164], for which the half-maximal inhibitory concentration (IC50) was determined as 1 nM in test [1], 66 nM in test [2] and 1500 nM in test [3].

Take `C[C@H](Oc1cc(N2CCNC3(CC3)C2)nc(-c2noc3c2CCC[C@@]32CCCc3sc(N)c(C#N)c32)n1)[C@@H]1C[C@@H](F)CN1C` [II-165]: the IC50 is 1 nM in test [1], 3 nM in test [2] and 437 nM in test [3].

As to `CC(C)[C@@H]1CN(c2cc(O[C@@H](C)[C@@H]3CCCN3C)nc(-c3noc4c3CCC[C@@]43CCCc4sc(N)c(C#N)c43)n2)CCN1` [II-166], the concentration for half-maximal inhibition (IC50) in test [1] is 1 nM; in test [2], 154 nM; in test [3], 1180 nM.

Take `C[C@H](Oc1cc(N2C[C@@H]3[C@@H](N)[C@@H]3C2)nc(-c2noc3c2CCC[C@@]32CCCc3sc(N)c(C#N)c32)n1)[C@@H]1CCCN1C` [II-167]: the figures for the concentration for half-maximal inhibition (IC50) in test [1], in test [2] and in test [3] were 2 nM, 614 nM and 1390 nM, respectively.

Consider `C[C@H](Oc1cc(-n2cc3c(n2)CNC3)nc(-c2noc3c2CCC[C@@]32CCCc3sc(N)c(C#N)c32)n1)[C@@H]1CCCN1C` [II-168], for which the figures for the 50% inhibitory concentration (IC50) in test [1], in test [2] and in test [3] were 1 nM, 27 nM and 441 nM, respectively.

`CC(C)N1CCCN(c2cc(-n3ccnc3)nc(-c3noc4c3CCC[C@@]43CCCc4sc(N)c(C#N)c43)n2)[C@@H](C)C1` [II-169]: the IC50 in test [1] stood at 9 nM; in test [2] it was 285 nM; in test [3], 4410 nM.

As for `CC(C)N1CCCN(c2cc(-c3ccn(C)n3)nc(-c3noc4c3CCC[C@@]43CCCc4sc(N)c(C#N)c43)n2)[C@@H](C)C1` [II-170], the half-maximal inhibitory concentration (IC50) in test [1] turned out to be 9 nM; in test [2], 89 nM; in test [3], 1050 nM.

As to `C[C@H](Oc1cc(N2CCN(C)C3(CC3)C2)nc(-c2noc3c2CCC[C@@]32CCCc3sc(N)c(C#N)c32)n1)[C@@H]1CCCN1C` [II-171], the half-maximal inhibitory concentration (IC50) stood at 1 nM in test [1], 10 nM in test [2] and 1100 nM in test [3].

For `C[C@H](Oc1cc(N2C[C@H](C)N(C)[C@@H](C)C2)nc(-c2noc3c2CCC[C@@]32CCCc3sc(N)c(C#N)c32)n1)[C@@H]1CCCN1C` [II-173], the IC50 in test [1] was found to be 1 nM; in test [2], 51 nM; in test [3], 751 nM.

As for `C[C@H](Oc1cc(-n2cc3c(n2)CN(C)C3)nc(-c2noc3c2CCC[C@@]32CCCc3sc(N)c(C#N)c32)n1)[C@@H]1CCCN1C` [II-174], the figures for the IC50 in test [1], in test [2] and in test [3] were 1 nM, 16 nM and 248 nM, respectively.

For the molecule `C[C@H](Oc1nc(-c2noc3c2CCC[C@@]32CCCc3sc(N)c(C#N)c32)nc(N2CCN(C)C3(CC3)C2)c1Cl)[C@@H]1C[C@@H](F)CN1C` [II-176], the figures for the 50% inhibitory concentration (IC50) in test [1], in test [2] and in test [3] were 2 nM, 112 nM and 4940 nM, respectively.

As to `CC(=O)N1CCN(c2cc(O[C@@H](C)[C@@H]3CCCN3C)nc(-c3noc4c3CCC[C@@]43CCCc4sc(N)c(C#N)c43)n2)CC12CC2` [II-178], the IC50 in test [1] came out at 2 nM; in test [2], 85 nM; in test [3], 2570 nM.

Consider `CC(C)NC(=O)Cc1ccn(-c2cc(O[C@@H](C)[C@@H]3CCCN3C)nc(-c3noc4c3CCC[C@@]43CCCc4sc(N)c(C#N)c43)n2)n1` [II-182], for which the IC50 in test [1] came out at 1 nM; in test [2], 16 nM; in test [3], 32 nM.

As to `CO[C@H]1CCN(C)[C@@H]1[C@H](C)Oc1cc(-n2ccc(CC(=O)NC(C)C)n2)nc(-c2noc3c2CCC[C@@]32CCCc3sc(N)c(C#N)c32)n1` [II-183], the IC50 in test [1] was 1 nM; in test [2], 12 nM; in test [3], 6 nM.

For `CO[C@H]1CCN(C)[C@@H]1[C@H](C)Oc1cc(N2CCNC3(CC3)C2)nc(-c2noc3c2CCC[C@@]32CCCc3sc(N)c(C#N)c32)n1` [II-184], the concentration for half-maximal inhibition (IC50) in test [1] was found to be 1 nM; in test [2] it was 1 nM; in test [3] it was 882 nM.
